Data as given in patent publication US8049034B2, “Biphenyl compound selective agonists of gamma RAR receptors” (Galderma Research & Development, priority 2005, dated 2011).
pKd: −log10 of the molar value.

Legend:
Format in all cases: cell-based
RAR beta = molecular target: T1, RAR beta (Homo sapiens, UniProt P10826); assay: Transactivation test (luciferase reporter, HeLa stable transfectants), RAR beta; conditions: apparent Kd from Schild regression, cross curves against reference antagonist, HeLa cells; read-out: RAR beta Kdapp
T1 sequence (P10826 183-417 limits assumed): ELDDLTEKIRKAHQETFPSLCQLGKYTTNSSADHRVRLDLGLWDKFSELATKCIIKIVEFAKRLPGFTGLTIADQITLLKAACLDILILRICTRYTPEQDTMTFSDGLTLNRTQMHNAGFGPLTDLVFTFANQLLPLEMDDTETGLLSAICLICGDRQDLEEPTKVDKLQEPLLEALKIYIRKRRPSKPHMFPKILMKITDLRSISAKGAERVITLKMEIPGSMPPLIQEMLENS
Protocol: (§1) The activation of the receptors by an agonist (activator) in HeLa cells results in the expression of a reporter gene, luciferase, which, in the presence of a substrate, generates light. It is thus possible to measure the activation of the receptors by quantifying the luminescence produced after incubation of the cells in the presence of a reference antagonist. The activating products displace the antagonist from its site, thus allowing activation of the receptor. The activity is measured by quantifying the increase in the light produced. This measurement makes it possible to determine the activator activity of the compound that can be used in the invention.
(§2) In this study, a constant which represents the affinity of the molecule for the receptor is determined. Since this value can fluctuate according to the basal activity and the expression of the receptor, it is designated apparent Kd (KdApp).
(§3) The test product is used at 10 concentrations and the reference antagonist at 7 concentrations. In each well (of a 96-well plate), the cells are in contact with one concentration of the test product and one concentration of the reference antagonist.
(§4) Measurements are also carried out for the total agonist control, otherwise known as 100% control (4-[2-(5,5,8,8-tetramethyl-5,6,7,8-tetrahydronaphthalen-2-yl)propenyl]benzoic acid), and the inverse agonist control, otherwise known as 0% control (4-{(E)-3-[4-(4-tert-butylphenyl)-5,5,8,8-tetramethyl-5,6,7,8-tetrahydronaphthalen-2-yl)]-3-oxopropenyl}benzoic acid).
(§5) In the case of an agonist, the AC50 is calculated by plotting the curve of the product at the concentration of the reference ligand giving 80% activation. The percentage activation which corresponds to the maximum level of activity obtained is also measured.
(§6) The HeLa cell lines used are stable transfectants containing the plasmids ERE-βGlob-Luc-SV-Neo (reporter gene) and RAR (α, β, γ) ER-DBO-puro. These cells are seeded into 96-well plates at a rate of 10 000 cells per well in 100 μl of DMEM medium without phenol red and supplemented with 10% defatted calf serum. The plates are then incubated at 37° C., 7% CO2 for 4 hours.
(§7) The various dilutions of the test product, of the reference ligand
(§8) (4-(5,5-dimethyl-8-p-tolyl-5,6-dihydronaphthalen-2-ylethynyl)benzoic acid), of the 100% control (100 nM 4-[2-(5,5,8,8-tetramethyl-5,6,7,8-tetrahydronaphthalen-2-yl)propenyl]benzoic acid) and of the 0% control (500 nM 4-{(E)-3-[4-(4-tert-butylphenyl)-5,5,8,8-tetramethyl-5,6,7,8-tetrahydronaphthalen-2-yl)]-3-oxopropenyl}benzoic acid) are added at a rate of 5 μl per well. The plates are then incubated for 18 hours at 37° C., 7% CO2.
(§9) The culture medium is removed by turning the plates over, and 100 μl of a 1:1 PBS (phosphate buffered solution)/luciferin mixture are added to each well. After 5 minutes, the plates are read using the luminescence reader.

RAR alpha = molecular target: T2, RAR alpha (Homo sapiens, UniProt P10276); assay: Transactivation test (luciferase reporter, HeLa stable transfectants), RAR alpha; conditions: apparent Kd from Schild regression, cross curves against reference antagonist, HeLa cells; read-out: RAR alpha Kdapp
T2 sequence (P10276 183-417 limits assumed): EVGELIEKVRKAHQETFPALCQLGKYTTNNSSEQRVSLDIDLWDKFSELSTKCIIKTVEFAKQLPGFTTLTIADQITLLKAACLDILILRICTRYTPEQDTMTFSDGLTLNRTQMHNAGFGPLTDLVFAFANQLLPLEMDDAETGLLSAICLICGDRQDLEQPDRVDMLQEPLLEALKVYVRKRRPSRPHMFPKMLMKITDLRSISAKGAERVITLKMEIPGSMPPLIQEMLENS
Protocol: as §1, §2, §3, §4, §5, §6, §7, §8, §9

RAR gamma = molecular target: T3, RAR gamma (Homo sapiens, UniProt P13631); assay: Transactivation test (luciferase reporter, HeLa stable transfectants), RAR gamma; conditions: apparent Kd from Schild regression, cross curves against reference antagonist, HeLa cells; read-out: RAR gamma Kdapp
T3 construct: RAR gamma Kdapp
T3 sequence (P13631 185-419 limits assumed): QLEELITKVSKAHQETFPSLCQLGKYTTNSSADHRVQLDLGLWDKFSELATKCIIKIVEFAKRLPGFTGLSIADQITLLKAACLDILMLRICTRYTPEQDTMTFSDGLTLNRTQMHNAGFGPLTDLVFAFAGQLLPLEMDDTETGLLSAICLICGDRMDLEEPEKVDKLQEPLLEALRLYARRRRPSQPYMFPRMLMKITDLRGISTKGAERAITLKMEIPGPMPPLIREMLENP
Protocol: as §1, §2, §3, §4
In the case of an agonist, the AC50 is calculated by plotting the curve of the product at the concentration of the reference ligand giving 80% activation. The percentage activation which corresponds to the maximum level of activity obtained is also measured. […]
as §9

SMILES | pKd (RAR beta) | pKd (RAR alpha) | pKd (RAR gamma)
CC1(C)CCC(C)(C)c2cc(-c3cc(-c4ccc(C(=O)O)cc4O)ccc3-c3ccccc3)ccc21 [Example 42, 2″-Hydroxy-2′-(5,5,8,8-tetramethyl-5,6,7,8-tetrahydronaphthalen-2-yl)-[1,1′:4,1″]-tert-phenyl-4″-carboxylic acid] | 8.40 | 8.10 | 
COc1cc(C(=O)O)ccc1-c1ccc(-c2ccccc2)c(-c2ccc3c(c2)C(C)(C)CCC3(C)C)c1 [Example 44, 2″-Methoxy-2′-(5,5,8,8-tetramethyl-5,6,7,8-tetrahydronaphthalen-2-yl)-[1,1′:4,1″]-tert-phenyl-4″-carboxylic acid] | 8.70 | 8.40 | 9.30
CC1(C)CCC(C)(C)c2cc(-c3cc(-c4ccc(C(=O)O)cn4)ccc3-c3ccccc3)ccc21 [Example 47, 6-[2-(5,5,8,8-Tetramethyl-5,6,7,8-tetrahydronaphthalen-2-yl)biphenyl-4-yl]nicotinic acid] | 9.00 | 8.40 | 

More lines, in order of rising pKd (RAR beta), values ahead:

pKd (RAR beta) | pKd (RAR alpha) | pKd (RAR gamma) | SMILES
9.00 | 8.70 |  | CC1(C)CCC(C)(C)c2cc(-c3cc(-c4ccc(C(=O)O)cc4)ccc3-c3ccccc3)ccc21 [Example 14, 2′-(5,5,8,8-Tetramethyl-5,6,7,8-tetrahydronaphthalen-2-yl)-[1,1′:4′,1″]-tert-phenyl-4″-carboxylic acid]
9.00 | 8.70 | 9.60 | Cc1cc(-c2ccc(-c3ccccc3)c(-c3ccc4c(c3)C(C)(C)CCC4(C)C)c2)ccc1C(=O)O [Example 41, 3″-Methyl-2′-(5,5,8,8-tetramethyl-5,6,7,8-tetrahydronaphthalen-2-yl)-[1,1′:4,1″]-tert-phenyl-4″-carboxylic acid]
9.00 | 8.70 | 9.60 | CC1(C)CCC(C)(C)c2cc(-c3cc(-c4ccc(C(=O)O)c(O)c4)ccc3-c3ccccc3)ccc21 [Example 46, 3″-Hydroxy-2′-(5,5,8,8-tetramethyl-5,6,7,8-tetrahydronaphthalen-2-yl)-[1,1′:4,1″]-tert-phenyl-4″-carboxylic acid]
